According to patent US10272110B2, “Methods for promoting HSC engraftment” (CHILDREN'S MEDICAL CENTER CORPORATION, priority 2006, dated 2019):
Where two headings read alike, the source gives them in different places.

Assays:
runx1/cmyb+ AGM HSCs = settings: for Effect on HSC expression (# embryos altered/# embryos scored): runx1/cmyb+ HSCs, zebrafish embryos
Protocol: A chemical genetic screen was conducted to identify novel pathways that modulate definitive HSC formation during zebrafish embryogenesis. FIG. 1. Genes such as runx1 and cmyb, required for HSC development during mammalian hematopoiesis, are expressed in the ventral wall of the dorsal aorta in a region analogous to the mammalian AGM at thirty-six hours post-fertilization (hpf). […] Wild-type embryos were incubated with individual compounds from the three-somite stage until thirty-six hpf. Probes for runx1 and cmyb were combined and utilized to detect HSCs by in situ hybridization.
Wild-type age-matched embryos were arrayed into 48-well plates (˜5 embryos/well) of individual test compounds and exposed from 3-somites until 36 hpf. […] In situ hybridization for runx1 and cmyb was performed to assess HSCs. Compounds were retested at 10 μM, 20 μM, and 50 μM. Stem cell specificity was assessed using flk1 at 36 hpf. PGE2, PGI2, dmPGE2 and all cox inhibitors (Sigma) were used at 10 μM to 20 μM.
Qualitative scoring (# embryos with altered HSCs/# scored) of runx1/cmyb was conducted using the following criteria: Normal/unchanged=continuous line of runx1/cmyb+ endothelial cells and occasional hematopoietic clusters. Decreased/absent=reduction in runx1/cmyb+ cells, including the presence of large gaps in the line of HSCs, isolated positive cells, or absence of expression. Increased/excess=enhancement in runx1/cmyb^+ cells, including many HSC clusters, a thickened line of HSCs, or ectopic expression.

[1] = system: CFU-S from murine bone marrow cells; experiment: Murine colony-forming units-spleen (CFU-S); format: in vivo, mouse; settings: CFUS12, WBM treated ex vivo
Protocol: Two independent BM samples were treated (n=5/treatment×2 replicates) for each variable. Recipient mice were lethally irradiated with a split dose of 10 Gy. 6×10^4 unfractionated dmPGE2 or control-treated BM cells were injected retro-orbitally into irradiated recipient mice. Spleens were dissected on day eight or twelve, weighed and fixed with Bouin's solution; hematopoietic colonies per spleen were counted. 1×10^5 cells/recipient were transplanted after treatment with the cox inhibitors. FACS sorted ckit^+sca1^+lineage^− BM cells were treated as above and transplanted at a dose of either 100 cells/recipient or 300 cells/recipient.

[2] = system: peripheral blood and bone marrow WBC; experiment: 5-Fluorouracil bone marrow injury; format: in vivo, mouse; settings: in vivo exposure, IP, 1 mg/kg
Protocol: Mice were treated with 5-FU (150 mg/kg) as described. Venezia et al., 2004. […] Peripheral blood was obtained on day seven and day fourteen, quantified and subjected to multilineage FACS analysis using antibodies (eBioscience) to B220/IgM (B-lymphoid), CD4/8 (T-lymphoid), Mac1/Gr1 (myeloid), Ter119/CD71 (erythroid) and ckit/sca1 (stem/progenitor). Mice were sacrificed on day 16, and bone marrow was isolated, quantified and analyzed by FACS.

[3] = system: kidney marrow (KM) hematopoietic lineages; experiment: Kidney marrow irradiation recovery assay in adult zebrafish; settings: 10 μM, irradiated adult zebrafish
Description: Wild-type fish were sublethally irradiated, exposed to dmPGE2, and evaluated for kinetics of KM recovery by FACS 11 (FIG. 4A).
Adult zebrafish were exposed to 23 Gy of γ-irradiation. […] Whole KM isolated on days 0, 2, 4, 7, 10, 14 was subjected to FSC/SSC FACS analysis to identify hematopoietic lineages (n=5/treatment×3 replicates).

vasculature (flk1) = settings: zebrafish embryos, 36 hpf
Protocol: Wild-type age-matched embryos were arrayed into 48-well plates (˜5 embryos/well) of individual test compounds and exposed from 3-somites until 36 hpf. Three compound libraries were utilized: NINDS Custom Collection (1040), SpecPlus Collection (960) and BIOMOL ICCB Known Bioactives (480). […] In situ hybridization for runx1 and cmyb was performed to assess HSCs. Compounds were retested at 10 μM, 20 μM, and 50 μM. Stem cell specificity was assessed using flk1 at 36 hpf. PGE2, PGI2, dmPGE2 and all cox inhibitors (Sigma) were used at 10 μM to 20 μM.

[4] = exposure from three somites to 36 hpf, runx1/cmyb staining

N#CC(=C(/N)Sc1ccccc1N)/C(C#N)=C(\N)Sc1ccccc1N [U0126] was tested, and the “effect on AGM HSCs in zebrafish embryos (in words)” value (from here on “effect on AGM HSCs”) (runx1/cmyb+ AGM HSCs; zebrafish, in vivo) was “inhibit HCS”.
CCCCCC1OC1C/C=C\C/C=C\C/C=C\CCCC(=O)O (stereo not drawn) [Epoxyeicosatrienoic Acid] was tested, and the “Effect on HSC expression (# embryos altered/# embryos scored)” value (shortened to “Effect on HSC expression”) (runx1/cmyb+ AGM HSCs; Table 1, 36 hpf) was “Increase (17/25)”.
CCCCC[C@H](O)/C=C/[C@@H]1[C@H]2C/C(=C/CCCC(=O)O)O[C@H]2C[C@H]1O [PGI2] was tested, and the “increased runx1/cmyb expression (# embryos altered/# scored)” value (runx1/cmyb+ AGM HSCs; 20 μM, 36 hpf) was 28/47 and the “effect on AGM HSCs” value (runx1/cmyb+ AGM HSCs; [4]) was “increase moderately”.
In the case of CCCCC[C@H](O)/C=C/[C@H]1[C@H](O)CC(=O)[C@@H]1C/C=C/CCCC(=O)O (relative stereo) [5-trans PGE2], the “toxicity in zebrafish embryo screen” value (runx1/cmyb+ AGM HSCs; Table 4) is reported as “toxic”.
CS(=O)(=O)Nc1ccc([N+](=O)[O-])cc1OC1CCCCC1 [NS398] was tested, and the “decreased runx1/cmyb+ HSCs (# embryos altered/# scored)” value (runx1/cmyb+ AGM HSCs; 20 μM, 36 hpf) was 35/44, the “effect on AGM HSCs” value (runx1/cmyb+ AGM HSCs; [4]) was “reduced stem cells in the aorta” and the “CFUS activity under selective cox inhibition” value [1] was “significantly alter CFUS activity”. For the same compound, the “peripheral blood (day 14) and bone marrow (day 16) WBC counts after 5-FU injury” value [2] was “significantly inhibited WBC recovery” and the “survival of irradiated fish to day fourteen” value [3] was “excessive death”.
With CCCc1c(OCCCCc2nnn[nH]2)ccc(C(C)=O)c1O [Ly-171883] the “Effect on HSC expression” value (runx1/cmyb+ AGM HSCs; Table 1, 36 hpf) was “Increase (17/26)”.
CCCCCCOC(=O)[C@]1(O)C[C@@H]2O[C@@]1(C)n1c3ccccc3c3c4c(c5c6ccccc6n2c5c31)C(=O)NC4 [KT5720] was tested, and the “effect on AGM HSCs” value (runx1/cmyb+ AGM HSCs; [4]) was “inhibit HCS”.
O=S(=O)(NCCNC/C=C/c1ccc(Br)cc1)c1cccc2cnccc12 [H89] was tested, and the “effect on AGM HSCs” value (runx1/cmyb+ AGM HSCs; [4]) was “inhibit HCS”.
In the case of C[C@]12CC[C@H]3[C@@H](CC[C@]4(O)C[C@@H](O)CC[C@]34C=O)[C@@]1(O)CC[C@@H]2C1=CC(=O)OC1 [Strophanthidin], the “effect on AGM HSCs” value (runx1/cmyb+ AGM HSCs; [4]) is reported as “increases AGM stem cells”.
CCCCC1(COC(=O)CCC(=O)O)C(=O)N(c2ccccc2)N(c2ccccc2)C1=O [Suxibuzone] was tested, and the “Effect on HSC expression” value (runx1/cmyb+ AGM HSCs; Table 2, 36 hpf) was “Decrease (16/30)”.
With CC1=C(CC(=O)O)c2cc(F)ccc2/C1=C\c1ccc([S+](C)[O-])cc1 (stereo not drawn) [Sulindac] the “Effect on HSC expression” value (runx1/cmyb+ AGM HSCs; Table 2, 36 hpf) was “Decrease (18/31)”.
O=C1Cc2c([nH]c3ccc(Br)cc23)-c2ccccc2N1 [Kenpaullone] was tested, and the “effect on AGM HSCs” value (runx1/cmyb+ AGM HSCs; [4]) was “inhibit HCSs”.
CC(C)Cc1ccc(C(C)C(=O)O)cc1 (stereo not drawn) [Ibuprofen] was tested, and the “effect on AGM HSCs” value (runx1/cmyb+ AGM HSCs; [4]) was “reduced stem cells in the aorta”.
CCCCCCCC/C=C\C/C=C\C/C=C\CCCC(=O)O [Mead Acid] was tested, and the “Effect on HSC expression” value (runx1/cmyb+ AGM HSCs; Table 1, 36 hpf) was “Increase (24/32)” and the “effect on AGM HSCs” value (runx1/cmyb+ AGM HSCs; [4]) was “upregulated HSC formation”.
CCCCC[C@H](O)/C=C/[C@H]1C(=O)C=C[C@@H]1C/C=C\CCCC(=O)O [Prosteglandin J2] was tested, and the “Effect on HSC expression” value (runx1/cmyb+ AGM HSCs; Table 2, 36 hpf) was “Decrease (12/22)”.
CCCCC/C=C\C/C=C\CCCCCCCC(=O)O [Linoleic Acid] was tested, and the “Effect on HSC expression” value (runx1/cmyb+ AGM HSCs; Table 1, 36 hpf) was “Increase (22/30)”, the “effect on AGM HSCs” value (runx1/cmyb+ AGM HSCs; [4]) was “upregulated HSC formation” and the “effect on vasculature / flk1 staining (in words)” value (vasculature (flk1)) was “remained relatively unchanged”.
In the case of [Cl-].[Li+] [lithium chloride], the “effect on AGM HSCs” value (runx1/cmyb+ AGM HSCs; [4]) is reported as “HSC enhancers”.
Cc1ccc(-c2cc(C(F)(F)F)nn2-c2ccc(S(N)(=O)=O)cc2)cc1 [Celecoxib] was tested, and the “decreased runx1/cmyb+ HSCs (# embryos altered/# scored)” value (runx1/cmyb+ AGM HSCs; 20 μM, 36 hpf) was 26/31.
For CCCCC[C@H](O)/C=C/[C@@H]1[C@@H](C/C=C\CCCC(=O)O)[C@@H](O)C[C@H]1O [PGF2], the “effect on AGM HSCs” value (runx1/cmyb+ AGM HSCs; [4]) was “no effect”.
COc1ccc2cc([C@H](C)C(=O)O)ccc2c1 [Naproxen] was tested, and the “effect on AGM HSCs” value (runx1/cmyb+ AGM HSCs; [4]) was “reduced stem cells in the aorta”.
In the case of O=C1Nc2cc(Br)ccc2/C1=C1/Nc2ccccc2/C1=N\O [BIO], the “effect on AGM HSCs” value (runx1/cmyb+ AGM HSCs; [4]) is reported as “HSC enhancers”.
In the case of CCCCC[C@H](O)/C=C/C=C\CCCCCCCC(=O)O [13(S)-HODE], the “Effect on HSC expression” value (runx1/cmyb+ AGM HSCs; Table 1, 36 hpf) is reported as “Increase (15/25)”.
For COc1cccc(-c2cc(=O)c3ccccc3o2)c1N [PD9805], the “effect on AGM HSCs” value (runx1/cmyb+ AGM HSCs; [4]) was “inhibit HCS”.
With CC(=O)Oc1ccccc1C(=O)O [Aspirin] the “effect on AGM HSCs” value (runx1/cmyb+ AGM HSCs; [4]) was “reduced stem cells in the aorta”.
In the case of O=C(O)CCC(=O)c1ccc(-c2ccccc2)cc1 [Fenbufen], the “Effect on HSC expression” value (runx1/cmyb+ AGM HSCs; Table 2, 36 hpf) is reported as “Decrease (20/26)” and the “effect on AGM HSCs” value (runx1/cmyb+ AGM HSCs; [4]) is reported as “decreased HSCs”.
With CCCC(CCC)C(=O)O [Valproic Acid] the “effect on AGM HSCs” value (runx1/cmyb+ AGM HSCs; [4]) was “inhibit HCSs”.
For CC(C)NCC(O)COc1ccc(CC(N)=O)cc1 (stereo not drawn) [Atenolol], the “effect on AGM HSCs” value (runx1/cmyb+ AGM HSCs; [4]) was “heightened production of AGM stem cells”.
